Test results published in ChEMBL document CHEMBL5120857, “Rational design, synthesis and biological evaluation of dual PARP-1/2 and TNKS1/2 inhibitors for cancer therapy” (Eur J Med Chem, 2022).
Calls of active or inactive are those of the source. No cut-off for these calls is given here.

Tests used:
[1] = target: T1, Poly [ADP-ribose] polymerase 1 (Homo sapiens, UniProt P09874); details: dose 10.0 nM, time 45.0 min
[2] = target: T2, Poly [ADP-ribose] polymerase tankyrase-2 (Homo sapiens) (UniProt Q9H2K2); details: dose 10.0 nM, time 1.0 hrs
T2 sequence (whole entry): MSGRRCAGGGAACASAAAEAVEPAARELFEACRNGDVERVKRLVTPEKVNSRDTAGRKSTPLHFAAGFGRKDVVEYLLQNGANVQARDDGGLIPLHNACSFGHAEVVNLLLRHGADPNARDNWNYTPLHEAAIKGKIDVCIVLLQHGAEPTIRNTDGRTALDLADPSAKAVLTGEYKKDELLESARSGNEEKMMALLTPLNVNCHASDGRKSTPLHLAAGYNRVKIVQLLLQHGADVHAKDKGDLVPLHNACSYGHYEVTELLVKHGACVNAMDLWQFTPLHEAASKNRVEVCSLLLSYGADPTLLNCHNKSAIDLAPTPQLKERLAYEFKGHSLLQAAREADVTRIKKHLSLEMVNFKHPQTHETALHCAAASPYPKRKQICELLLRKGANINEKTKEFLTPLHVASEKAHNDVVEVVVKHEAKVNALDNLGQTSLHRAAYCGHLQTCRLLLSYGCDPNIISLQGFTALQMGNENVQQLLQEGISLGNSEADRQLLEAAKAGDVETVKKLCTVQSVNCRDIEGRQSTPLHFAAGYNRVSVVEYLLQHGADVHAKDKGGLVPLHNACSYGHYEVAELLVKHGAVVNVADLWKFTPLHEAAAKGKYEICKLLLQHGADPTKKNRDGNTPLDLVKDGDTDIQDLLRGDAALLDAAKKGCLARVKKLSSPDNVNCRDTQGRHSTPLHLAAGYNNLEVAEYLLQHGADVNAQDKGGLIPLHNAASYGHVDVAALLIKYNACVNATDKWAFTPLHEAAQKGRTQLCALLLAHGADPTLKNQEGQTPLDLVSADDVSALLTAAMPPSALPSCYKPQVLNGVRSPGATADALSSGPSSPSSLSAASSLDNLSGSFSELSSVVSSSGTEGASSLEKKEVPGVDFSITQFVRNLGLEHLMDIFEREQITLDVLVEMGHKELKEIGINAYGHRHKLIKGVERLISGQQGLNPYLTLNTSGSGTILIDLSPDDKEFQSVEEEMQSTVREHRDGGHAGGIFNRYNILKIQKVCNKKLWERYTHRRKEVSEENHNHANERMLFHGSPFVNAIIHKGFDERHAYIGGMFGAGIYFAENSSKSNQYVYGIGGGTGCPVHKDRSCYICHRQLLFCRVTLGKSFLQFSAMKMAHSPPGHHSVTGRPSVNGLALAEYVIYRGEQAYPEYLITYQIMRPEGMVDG

[3] = test system: MDA-MB-231; test: Antiproliferative activity against human MDA-MB-231 cells assessed as inhibition of cell growth incubated for 7 days by MTT assay; type: functional, cell-based; details: MDA-MB-231, 168 h
[4] = test system: HCT-116; test: Antiproliferative activity against human HCT-116 cells assessed as inhibition of cell growth incubated for 7 days by MTT assay; type: functional, cell-based; details: HCT-116, 168 h
[5] = test system: MDA-MB-468; test: Antiproliferative activity against human MDA-MB-468 cells assessed as inhibition of cell growth incubated for 7 days by MTT assay; type: functional, cell-based; details: MDA-MB-468, 168 h
[6] = Cytotoxicity against mouse AML12 cells assessed as reduction in cell viability incubated for 7 days by MTT assay; type: toxicity, cell-based; details: time 7 day
[7] = target: T1, Poly [ADP-ribose] polymerase 1; test: Inhibition of PARP-1 (unknown origin) using biotinylated NAD+ as substrate incubated for 45 mins in the presence of deoxy-oligonucleotide by microplate reader method relative to control
[8] = target: T3, Poly [ADP-ribose] polymerase tankyrase-1 (Homo sapiens, UniProt O95271); test: Inhibition of TNKS1 (unknown origin) using biotin-NAD+ as substrate incubated for 1 hr in the presence of deoxy-oligonucleotide by ELISA analysis relative to control
T3 sequence (O95271 whole entry): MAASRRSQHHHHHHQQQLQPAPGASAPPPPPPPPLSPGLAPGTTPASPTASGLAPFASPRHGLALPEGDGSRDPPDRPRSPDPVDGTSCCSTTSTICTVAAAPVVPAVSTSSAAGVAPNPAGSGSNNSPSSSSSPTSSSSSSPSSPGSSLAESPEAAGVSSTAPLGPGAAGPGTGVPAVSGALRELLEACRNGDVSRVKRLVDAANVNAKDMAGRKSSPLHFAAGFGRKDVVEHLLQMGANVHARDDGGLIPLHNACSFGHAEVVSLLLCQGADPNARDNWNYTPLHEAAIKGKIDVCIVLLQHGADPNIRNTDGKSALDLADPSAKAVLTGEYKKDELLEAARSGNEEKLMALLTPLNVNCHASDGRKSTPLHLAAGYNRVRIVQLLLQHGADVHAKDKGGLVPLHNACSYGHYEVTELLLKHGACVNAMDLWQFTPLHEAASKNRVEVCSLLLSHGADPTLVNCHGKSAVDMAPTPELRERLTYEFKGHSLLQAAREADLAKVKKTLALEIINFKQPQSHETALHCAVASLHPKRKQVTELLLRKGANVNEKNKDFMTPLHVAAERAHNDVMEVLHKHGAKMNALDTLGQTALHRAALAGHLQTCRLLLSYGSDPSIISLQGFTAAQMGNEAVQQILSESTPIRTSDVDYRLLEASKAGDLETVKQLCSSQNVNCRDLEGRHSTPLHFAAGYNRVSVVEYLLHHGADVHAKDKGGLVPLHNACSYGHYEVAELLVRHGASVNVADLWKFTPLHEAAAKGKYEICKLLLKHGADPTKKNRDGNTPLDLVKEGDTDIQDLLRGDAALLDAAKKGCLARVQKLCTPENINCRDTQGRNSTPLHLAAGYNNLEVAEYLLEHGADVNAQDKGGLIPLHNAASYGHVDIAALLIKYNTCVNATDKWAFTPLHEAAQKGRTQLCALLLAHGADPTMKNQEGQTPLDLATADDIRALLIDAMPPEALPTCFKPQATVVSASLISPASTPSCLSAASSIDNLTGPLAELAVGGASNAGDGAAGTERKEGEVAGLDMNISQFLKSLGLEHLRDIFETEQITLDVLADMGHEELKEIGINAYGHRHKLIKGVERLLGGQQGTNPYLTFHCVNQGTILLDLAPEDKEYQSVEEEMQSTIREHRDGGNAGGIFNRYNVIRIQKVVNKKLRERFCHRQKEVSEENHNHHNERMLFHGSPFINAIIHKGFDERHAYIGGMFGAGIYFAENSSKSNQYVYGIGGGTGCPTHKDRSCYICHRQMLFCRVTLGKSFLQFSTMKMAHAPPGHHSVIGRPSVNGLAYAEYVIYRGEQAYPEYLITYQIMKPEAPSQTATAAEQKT

[9] = target: T4, Poly [ADP-ribose] polymerase tankyrase-2 (Homo sapiens, UniProt Q9H2K2); test: Inhibition of TNKS2 (unknown origin) using biotin-NAD+ as substrate incubated for 1 hr in the presence of deoxy-oligonucleotide by ELISA analysis relative to control
T4 sequence (Q9H2K2 whole entry): T2 sequence (whole entry)

[10] = target: T5, Poly [ADP-ribose] polymerase tankyrase-1 (Homo sapiens) (UniProt O95271); details: dose 10.0 nM, time 1.0 hrs
T5 sequence (whole entry): T3 sequence (O95271 whole entry)

[11] = test system: HCT-116; test: Inhibition of Wnt/beta-Catenin signaling in human HCT-116 cells assessed as increase in axin2 levels at 10 uM by Western blot analysis; type: cell-based
[12] = test system: HCT-116; test: Inhibition of Wnt/beta-Catenin signaling in human HCT-116 cells assessed as decrease in cyclin D1 levels at 10 uM by Western blot analysis; type: cell-based
[13] = test system: HCT-116; test: Inhibition of PARP in human HCT-116 cells assessed as decrease in pADPr levels at 10 uM by Western blot analysis; type: cell-based
[14] = test system: HCT-116; test: Induction of apoptosis in human HCT-116 cells assessed as viable cells at 5 uM incubated for 3 days by annexinV-FITC/propidium iodide staining based flow cytometry (reference value: 60.0 %); type: functional; details: time 3 day
[15] = test system: HCT-116; test: Induction of apoptosis in human HCT-116 cells assessed as early apoptotic cells at 5 uM incubated for 3 days by annexinV-FITC/propidium iodide staining based flow cytometry (reference value: 7.67 %); type: functional; details: time 3 day
[16] = test system: HCT-116; test: Induction of apoptosis in human HCT-116 cells assessed as late apoptotic cells at 5 uM incubated for 3 days by annexinV-FITC/propidium iodide staining based flow cytometry (reference value: 8.71 %); type: functional; details: time 3 day
[17] = test system: HCT-116; test: Induction of apoptosis in human HCT-116 cells assessed as necrotic cells at 5 uM incubated for 3 days by annexinV-FITC/propidium iodide staining based flow cytometry (reference value: 3.65 %); type: functional; details: time 3 day
[18] = test system: HCT-116; test: Induction of cell cycle arrest in human HCT-116 cells assessed as G0/G1 phase cells at 5 uM incubated for 3 days by propidium iodide staining based flow cytometry (reference value: 68.35 %); type: functional; details: time 3 day
[19] = test system: HCT-116; test: Induction of cell cycle arrest in human HCT-116 cells assessed as S phase cells at 5 uM incubated for 3 days by propidium iodide staining based flow cytometry (reference value: 11.26 %); type: functional; details: time 3 day
[20] = test system: HCT-116; test: Induction of cell cycle arrest in human HCT-116 cells assessed as G2/M phase cells at 5 uM incubated for 3 days by propidium iodide staining based flow cytometry (reference value: 68.35 %); type: functional; details: time 3 day
[21] = test system: HCT-116; test: Antitumor activity against human HCT-116 cells xenografted in BALB/c nude mouse assessed as tumor growth inhibition at 50 mg/kg, ip administered once daily for 28 days; type: functional; details: time 28 day

T1 sequence (P09874 whole entry): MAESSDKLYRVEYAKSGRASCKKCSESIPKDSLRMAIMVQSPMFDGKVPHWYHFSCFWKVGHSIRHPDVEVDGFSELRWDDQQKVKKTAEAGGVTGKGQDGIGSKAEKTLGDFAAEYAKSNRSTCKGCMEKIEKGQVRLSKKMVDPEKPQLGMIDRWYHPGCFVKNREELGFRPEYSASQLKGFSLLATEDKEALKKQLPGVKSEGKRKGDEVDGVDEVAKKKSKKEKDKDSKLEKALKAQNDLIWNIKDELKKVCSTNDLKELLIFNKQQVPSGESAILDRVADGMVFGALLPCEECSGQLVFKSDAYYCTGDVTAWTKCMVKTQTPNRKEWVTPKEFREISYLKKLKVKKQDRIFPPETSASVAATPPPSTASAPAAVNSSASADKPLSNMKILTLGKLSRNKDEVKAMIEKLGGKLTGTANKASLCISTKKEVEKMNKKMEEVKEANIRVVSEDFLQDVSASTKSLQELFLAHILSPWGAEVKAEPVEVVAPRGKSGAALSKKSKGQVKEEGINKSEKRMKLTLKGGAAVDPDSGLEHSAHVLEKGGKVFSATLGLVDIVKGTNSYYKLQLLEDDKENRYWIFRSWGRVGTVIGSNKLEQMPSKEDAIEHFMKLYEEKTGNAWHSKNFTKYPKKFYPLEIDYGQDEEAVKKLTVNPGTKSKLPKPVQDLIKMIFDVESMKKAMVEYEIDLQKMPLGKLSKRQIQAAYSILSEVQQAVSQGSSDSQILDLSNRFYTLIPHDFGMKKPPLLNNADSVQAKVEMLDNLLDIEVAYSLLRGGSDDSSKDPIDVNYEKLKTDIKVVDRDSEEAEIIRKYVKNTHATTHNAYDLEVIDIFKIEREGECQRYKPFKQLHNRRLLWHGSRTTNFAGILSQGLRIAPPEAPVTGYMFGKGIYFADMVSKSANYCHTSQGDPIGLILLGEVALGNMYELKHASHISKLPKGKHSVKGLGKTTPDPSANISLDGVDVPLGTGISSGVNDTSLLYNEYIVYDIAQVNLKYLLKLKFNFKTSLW

SMILES | inhibition [1] [%] | inhibition [2] [%] | IC50 [3] [nM] | IC50 [4] [nM] | IC50 [5] [nM] | CC50 at 168 h [6] [µM] | IC50 [7] [nM] | IC50 [8] [nM] | IC50 [9] [nM] | inhibition [10] [%] | other results
O=C(Nc1cccc(F)c1)c1ccc(NC(=O)N2CCN(C(=O)c3cc(Cc4n[nH]c(=O)c5ccccc45)ccc3F)CC2)cc1 | 98 | 26 |  |  |  |  |  |  |  |  | 
Cc1ccccc1NC(=O)c1ccc(NC(=O)N2CCN(C(=O)c3cc(Cc4n[nH]c(=O)c5ccccc45)ccc3F)CC2)cc1 | 99 | 40 | 1290 | 1040 | 70 | 86.7 | 1.62 | 130 | 110 | 20 | 
Cc1cccc(NC(=O)c2ccc(NC(=O)N3CCN(C(=O)c4cc(Cc5n[nH]c(=O)c6ccccc56)ccc4F)CC3)cc2)c1 | 99 | 29.5 |  |  |  |  |  |  |  |  | 
O=C(Nc1ccccc1F)c1ccc(NC(=O)N2CCN(C(=O)c3cc(Cc4n[nH]c(=O)c5ccccc45)ccc3F)CC2)cc1 | 99 | 36 |  |  |  |  | 0.98 | 506 | 296 | 10.5 | 
Oc1nc(-c2ccc(C(F)(F)F)cc2)nc2c1CSCC2 |  |  |  |  |  |  |  |  |  | 86 | inhibition [11]: Active; inhibition [12]: Active; inhibition [13]: Active
O=C(c1cc(Cc2n[nH]c(=O)c3ccccc23)ccc1F)N1CCN(C(=O)C2CC2)CC1 [OLAPARIB] |  |  | 5350 | 5560 | 2520 | 31.1 |  |  |  |  | inhibition [13]: Active; Activity [14]: 68.8%; Activity [15]: 12.9%; Activity [16]: 14.3%; Activity [17]: 4.03%; Activity [18]: 58.46%; Activity [19]: 7.31%; Activity [20]: 34.23%; TGI [21]: 15.36%
O=c1[nH]nc2c3c(cccc13)N=C(CN1Cc3ccccc3C1)N2 [2X-121] |  |  | 2890 | 6710 | 4170 | 1.39 |  |  |  |  | inhibition [11]: Active; inhibition [12]: Active; inhibition [13]: Active; viability at 5 µM ([14]; Homo sapiens, HCT-116, 72 h, read-out: Activity): 74.8%; Activity [15]: 6.11%; Activity [16]: 12.6%; Activity [17]: 6.45%; Activity [18]: 64.78%; Activity [19]: 11.73%; Activity [20]: 23.49%; inhibition in vivo at 50 mg/kg ([21]; Mus musculus, HCT-116, 672 h, read-out: TGI): 20.2%
COc1ccc(NC(=O)c2ccc(NC(=O)C3CCN(C(=O)c4cc(Cc5n[nH]c(=O)c6ccccc56)ccc4F)CC3)cc2)cc1 | 97 | 11.5 |  |  |  |  |  |  |  |  | 
COc1ccc(NC(=O)C2CCN(CC(=O)N3CCN(C(=O)c4cc(Cc5n[nH]c(=O)c6ccccc56)ccc4F)CC3)CC2)cc1 | 98 |  |  |  |  |  |  |  |  |  | 
O=C(Nc1ccc(C(F)(F)F)cc1)c1ccc(NC(=O)N2CCN(C(=O)c3cc(Cc4n[nH]c(=O)c5ccccc45)ccc3F)CC2)cc1 | 98 | 28 |  |  |  |  | 4.08 | 551 | 367 | 12.5 | 
COc1ccc(NC(=O)c2ccc(NC(=O)N3CCN(C(=O)c4cc5cccc(C(N)=O)c5o4)CC3)cc2)cc1 | 51.5 | 22.5 |  |  |  |  |  |  |  | 22.5 | 
O=C(Nc1ccc(F)cc1)c1ccc(NC(=O)N2CCN(C(=O)c3cc(Cc4n[nH]c(=O)c5ccccc45)ccc3F)CC2)cc1 | 89 | 38 | 960 | 510 | 110 | 37.4 | 1.54 | 214 | 171 | 14 | 
Cc1ccc(NC(=O)c2ccc(NC(=O)N3CCN(C(=O)c4cc(Cc5n[nH]c(=O)c6ccccc56)ccc4F)CC3)cc2)cc1 | 99 | 48 | 680 | 700 | 40 | 49.1 | 0.49 | 39 | 14 | 13 | 
O=C(Nc1cccc2cccnc12)c1ccc(NC(=O)N2CCN(C(=O)c3cc(Cc4n[nH]c(=O)c5ccccc45)ccc3F)CC2)cc1 | 96 | 28 |  |  |  |  |  |  |  |  | 
